Experimental data: patent US9353090B2, “Heterocyclic carboxylic acids as activators of soluble guanylate cyclase” (Boehringer Ingelheim International GmbH, priority 2014, dated 2016)
Converted amounts (≈) assume the structure as drawn.

How the values were obtained:
[1] = target: human soluble guanylate cyclase alpha 1 and beta 1 subunits (sGC) (Homo sapiens (Human), UniProt Q02108+Q02153); experiment: sGC cellular activator assay (cGMP, HTRF), in the presence and absence of 50% human serum; type: cell-based; settings: CHO cells stably expressing human sGC alpha 1/beta 1, preincubated with 40 microM ODQ; cGMP by HTRF; Table 2 does not state whether with or without 50% human serum
Sequence of human soluble guanylate cyclase alpha 1 and beta 1 subunits (sGC) (Q02108 whole entry partner): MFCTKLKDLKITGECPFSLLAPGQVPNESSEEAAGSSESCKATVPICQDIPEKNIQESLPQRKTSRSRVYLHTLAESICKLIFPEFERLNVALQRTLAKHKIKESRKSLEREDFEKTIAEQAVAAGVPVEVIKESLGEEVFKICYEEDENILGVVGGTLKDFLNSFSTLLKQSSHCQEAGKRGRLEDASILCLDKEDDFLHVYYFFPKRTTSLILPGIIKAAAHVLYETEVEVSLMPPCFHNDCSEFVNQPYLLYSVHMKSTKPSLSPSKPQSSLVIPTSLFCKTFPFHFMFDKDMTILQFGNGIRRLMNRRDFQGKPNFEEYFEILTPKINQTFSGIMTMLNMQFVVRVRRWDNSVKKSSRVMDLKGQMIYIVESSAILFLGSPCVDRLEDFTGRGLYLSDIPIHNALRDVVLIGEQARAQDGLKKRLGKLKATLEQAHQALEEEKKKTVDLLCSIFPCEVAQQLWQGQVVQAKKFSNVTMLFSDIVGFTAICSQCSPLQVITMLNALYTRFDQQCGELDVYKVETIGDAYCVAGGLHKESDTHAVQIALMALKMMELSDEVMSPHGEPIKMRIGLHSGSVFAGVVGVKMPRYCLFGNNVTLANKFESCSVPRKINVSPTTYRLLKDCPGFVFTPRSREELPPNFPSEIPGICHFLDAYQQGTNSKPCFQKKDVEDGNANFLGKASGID
Sequence of human soluble guanylate cyclase alpha 1 and beta 1 subunits (sGC) (Q02153 whole entry): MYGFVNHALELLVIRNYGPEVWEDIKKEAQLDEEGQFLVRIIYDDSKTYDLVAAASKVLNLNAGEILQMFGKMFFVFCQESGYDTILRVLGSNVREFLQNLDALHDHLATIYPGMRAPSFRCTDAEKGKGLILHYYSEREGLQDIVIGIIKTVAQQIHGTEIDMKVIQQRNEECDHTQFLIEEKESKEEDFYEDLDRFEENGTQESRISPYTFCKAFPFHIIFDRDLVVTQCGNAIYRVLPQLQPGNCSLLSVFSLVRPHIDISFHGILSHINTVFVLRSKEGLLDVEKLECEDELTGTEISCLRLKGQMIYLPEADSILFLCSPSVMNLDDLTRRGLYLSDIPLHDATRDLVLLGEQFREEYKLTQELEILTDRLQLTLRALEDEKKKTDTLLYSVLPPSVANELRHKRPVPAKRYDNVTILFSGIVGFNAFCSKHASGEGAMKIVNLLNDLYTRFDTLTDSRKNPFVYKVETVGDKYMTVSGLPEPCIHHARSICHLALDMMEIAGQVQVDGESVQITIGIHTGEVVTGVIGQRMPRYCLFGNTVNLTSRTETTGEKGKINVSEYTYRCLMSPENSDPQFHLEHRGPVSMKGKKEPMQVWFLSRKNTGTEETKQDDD
Summary of the method: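 First, CHO-sGC (human α1β1) cells get 1 h ODQ at 40 microM with IBMX and 0.1% BSA. Finally, cGMP is quantified by HTRF and EC50 computed.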

[2] = Human liver microsome (HLM) metabolic stability assay; type: in vitro ADME; settings: human liver microsomes
Summary of the method: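 Remaining parent measured by LC/MS/MS (ESI, MRM) at 5, 15, 30 and 60 min relative to 0 min. Incubation: 1 uM compound, HLMs, NADPH-started, 37° C., 60 min total, single replicate. Slope of ln(% remaining) gives t1/2 = 0.693/slope, then CLint, CLh and % Qh.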

physchem = settings: kinetic from dmso stock
[3] = pH 2.2, aqueous buffer, Solubility (pH 2.2)
[4] = pH 4.5, aqueous buffer, Solubility (pH 4.5)
[5] = pH 6.8, aqueous buffer, Solubility (pH 6.8)

Structure (SMILES) | EC50 [1] [nM] | Metabolic stability (Qh %), % hepatic blood flow [2] [%] | solubility at 24 h (physchem; [3]) [µg/mL] | solubility at 24 h (physchem; [4]) [µg/mL] | solubility at 24 h (physchem; [5]) [µg/mL]
CCO[C@H]1CN(c2nccc(-c3cccc(C)c3OCc3cc4c(c(OC)c3)CN(C3CCOCC3)CC4)n2)CC[C@H]1C(=O)O [Compound 246] | 15 | <24 | 117 (≈ 190 µM) | 114 (≈ 184 µM) | 85.4 (≈ 138 µM)
CCO[C@@H]1CN(c2nccc(-c3cccc(C)c3OCc3cc4c(c(OC)c3)CN(C3CCOCC3)CC4)n2)CC[C@@H]1C(=O)O [Compound 248] | 578 | <24 | 91.2 (≈ 148 µM) | 88.9 (≈ 144 µM) | 88.1 (≈ 143 µM)
COc1cc(COc2c(C)cccc2-c2cccc(N3CC[C@H](C(=O)O)[C@H](OC)C3)n2)cc2c1CN(C1CCOCC1)CC2 [Compound 249] | 13 | <24 | 129 (≈ 214 µM) | 127 (≈ 211 µM) | 120 (≈ 199 µM)
CO[C@H]1CN(c2cccc(-c3cccc(Cl)c3OCc3cc(C)c4c(c3)CCN(C3CCOCC3)C4)n2)CC[C@H]1C(=O)O [Compound 250] | 7 | 33 | 147 (≈ 243 µM) | 82.2 (≈ 136 µM) | 51.9 (≈ 85.6 µM)
CO[C@H]1CN(c2nc(-c3cc(C)ccc3OCc3cc(C)c4c(c3F)CCN(C3CCOCC3)C4)cs2)CC[C@H]1C(=O)O [Compound 253] | 9 | <24 | 127 (≈ 208 µM) | 7.7 (≈ 12.6 µM) | 1.1 (≈ 1.8 µM)
COc1cc(COc2ccc(C)cc2-c2csc(N3CC[C@@H](C(=O)O)[C@@H](OC)C3)n2)cc2c1CN(C1CCOCC1)CC2 [Compound 254] | 14 | 26 | 118 (≈ 194 µM) | 67.5 (≈ 111 µM) | 2.9 (≈ 4.77 µM)
CO[C@@H]1CN(c2cccc(-c3cccc(Cl)c3OCc3cc(C)c4c(c3)CCN(C3CCOCC3)C4)n2)CC[C@@H]1C(=O)O [Compound 255] | 7 | 25 | 170 (≈ 280 µM) | 69.5 (≈ 115 µM) | 37.7 (≈ 62.2 µM)
CCO[C@@H]1CN(c2cccc(-c3cccc(Cl)c3OCc3cc(C)c4c(c3)CCN(C3CCOCC3)C4)n2)CC[C@@H]1C(=O)O [Compound 259] | 65 | 44 | 150 (≈ 241 µM) | 86.8 (≈ 140 µM) | 58 (≈ 93.5 µM)
CCO[C@@H]1CN(c2cccc(-c3cccc(Cl)c3OCc3cc4c(c(OC)c3)CN(C3CCOCC3)CC4)n2)CC[C@@H]1C(=O)O [Compound 260] | 56 | 40 | 148 (≈ 233 µM) | 83.9 (≈ 132 µM) | 58.3 (≈ 91.6 µM)
COC[C@H]1N(c2cccc(-c3cccc(C)c3OCc3ccc4c(c3F)CCN(C3COC3)CC4)n2)C[C@@H]2C[C@@]21C(=O)O [Compound 263] | 7 | <24 | 122 (≈ 207 µM) | 82.8 (≈ 141 µM) | 54.4 (≈ 92.6 µM)
COc1cc(COc2c(Cl)cccc2-c2csc(N3CC[C@H](C(=O)O)[C@H](OC)C3)n2)cc2c1CN(C1CCOCC1)CC2 [Compound 265] | 15 | <24 | 117 (≈ 187 µM) | 53.7 (≈ 85.5 µM) | 46.7 (≈ 74.3 µM)
CO[C@@H]1CN(c2nc(-c3cccc(C)c3OCc3ccc4c(c3F)CCN(C3COC3)CC4)cs2)CC[C@@H]1C(=O)O [Compound 267] | 7 | <24 | 116 (≈ 199 µM) | 60.3 (≈ 104 µM) | 59.6 (≈ 102 µM)
CCO[C@H]1CN(c2nccc(-c3cccc(C)c3OCc3ccc4c(c3C)CCN(C3CCOCC3)CC4)n2)CC[C@H]1C(=O)O [Compound 275] | 32 | 28 | 117 (≈ 190 µM) | 81.3 (≈ 132 µM) | 84.5 (≈ 137 µM)
CCO[C@@H]1CN(c2nccc(-c3cccc(C)c3OCc3ccc4c(c3C)CCN(C3CCOCC3)CC4)n2)CC[C@@H]1C(=O)O [Compound 276] | 150 | <24 | 126 (≈ 206 µM) | 84.8 (≈ 138 µM) | 90.6 (≈ 147 µM)
CO[C@H]1CN(c2cccc(-c3cccc(C)c3OCc3ccc4c(c3F)CCN(C3COC3)CC4)n2)CC[C@H]1C(=O)O [Compound 278] | 6 | <24 | 122 (≈ 212 µM) | 85.1 (≈ 148 µM) | 68 (≈ 118 µM)

Continued, values first:

EC50 [1] [nM] | Metabolic stability (Qh %), % hepatic blood flow [2] [%] | solubility at 24 h (physchem; [3]) [µg/mL] | solubility at 24 h (physchem; [4]) [µg/mL] | solubility at 24 h (physchem; [5]) [µg/mL] | Structure (SMILES)
6 | 36 | 155 (≈ 249 µM) | 90.7 (≈ 146 µM) | 66.6 (≈ 107 µM) | COc1cc(COc2c(Cl)cccc2-c2cccc(N3CC[C@@H](C(=O)O)[C@@H](OC)C3)n2)cc2c1CN(C1CCOCC1)CC2 [Compound 251]
2 | <24 | 133 (≈ 212 µM) | 81.7 (≈ 131 µM) | 72.9 (≈ 116 µM) | COc1cc(COc2c(C)cccc2-c2csc(N3CC[C@@H](C(=O)O)[C@@H](OC)C3)n2)c(F)c2c1CN(C1CCOCC1)CC2 [Compound 252]
3 | 89 | 151 (≈ 243 µM) | 82 (≈ 132 µM) | 57.1 (≈ 92.1 µM) | CCO[C@H]1CN(c2cccc(-c3cccc(Cl)c3OCc3cc(C)c4c(c3)CCN(C3CCOCC3)C4)n2)CC[C@H]1C(=O)O [Compound 256]
3 | 85 | 164 (≈ 258 µM) | 88.2 (≈ 139 µM) | 59 (≈ 92.7 µM) | CCO[C@H]1CN(c2cccc(-c3cccc(Cl)c3OCc3cc4c(c(OC)c3)CN(C3CCOCC3)CC4)n2)CC[C@H]1C(=O)O [Compound 257]
3 | 29 | 116 (≈ 180 µM) | 40.7 (≈ 63.4 µM) | 38.9 (≈ 60.6 µM) | CCO[C@H]1CN(c2nc(-c3cccc(Cl)c3OCc3cc4c(c(OC)c3)CN(C3CCOCC3)CC4)cs2)CC[C@H]1C(=O)O [Compound 261]
3 | 25 | 133 (≈ 215 µM) | 94.9 (≈ 154 µM) | 67.4 (≈ 109 µM) | COC[C@H]1N(c2cccc(-c3cccc(C)c3OCc3ccc4c(c3F)CCN(C3CCOCC3)CC4)n2)C[C@@H]2C[C@@]21C(=O)O [Compound 262]
4 | <24 | 135 (≈ 215 µM) | 56.6 (≈ 90.1 µM) | 51.8 (≈ 82.5 µM) | COc1cc(COc2c(Cl)cccc2-c2csc(N3CC[C@@H](C(=O)O)[C@@H](OC)C3)n2)cc2c1CN(C1CCOCC1)CC2 [Compound 264]
5 | <24 | 109 (≈ 179 µM) | 63.1 (≈ 103 µM) | 59.4 (≈ 97.4 µM) | CO[C@@H]1CN(c2nc(-c3cccc(C)c3OCc3ccc4c(c3F)CCN(C3CCOCC3)CC4)cs2)CC[C@@H]1C(=O)O [Compound 266]
4 | 40 | 119 (≈ 198 µM) | 88.6 (≈ 147 µM) | 57.8 (≈ 96.1 µM) | COC[C@H]1N(c2cccc(-c3cccc(C)c3OCc3ccc4c(c3F)CCN(C3CCOC3)CC4)n2)C[C@@H]2C[C@@]21C(=O)O (some centres unmarked) [Compound 268]
6 | <24 | 115 (≈ 184 µM) | 35.1 (≈ 56.3 µM) | 3 (≈ 4.81 µM) | CCO[C@@H]1CN(c2nc(-c3cc(C)ccc3OCc3cc(C)c4c(c3F)CCN(C3CCOCC3)C4)cs2)CC[C@@H]1C(=O)O [Compound 269]
2 | 38 | 114 (≈ 179 µM) | 73.4 (≈ 115 µM) | 64 (≈ 100 µM) | CCO[C@@H]1CN(c2nc(-c3cccc(C)c3OCc3cc(OC)c4c(c3F)CCN(C3CCOCC3)C4)cs2)CC[C@@H]1C(=O)O [Compound 270]
5 | <24 | 134 (≈ 214 µM) | 66.6 (≈ 106 µM) | 32.8 (≈ 52.4 µM) | COc1cc(COc2ccc(C)cc2-c2csc(N3CC[C@@H](C(=O)O)[C@@H](OC)C3)n2)c(F)c2c1CN(C1CCOCC1)CC2 [Compound 271]
2 | <24 | 128 (≈ 201 µM) | 54.1 (≈ 84.6 µM) | 18.5 (≈ 28.9 µM) | CCO[C@@H]1CN(c2nc(-c3cc(C)ccc3OCc3cc(OC)c4c(c3F)CCN(C3CCOCC3)C4)cs2)CC[C@@H]1C(=O)O [Compound 272]
5 | <24 | 120 (≈ 198 µM) | 80.7 (≈ 134 µM) | 64.3 (≈ 107 µM) | CO[C@H]1CN(c2cccc(-c3cccc(C)c3OCc3cc(F)c4c(c3)CCN(C3CCOCC3)CC4)n2)CC[C@H]1C(=O)O [Compound 273]
4 | <24 | 114 (≈ 198 µM) | 72 (≈ 125 µM) | 65.5 (≈ 114 µM) | CO[C@H]1CN(c2cccc(-c3cccc(C)c3OCc3cc(F)c4c(c3)CCN(C3COC3)CC4)n2)CC[C@H]1C(=O)O [Compound 274]
4 | <24 | 133 (≈ 220 µM) | 97.1 (≈ 161 µM) | 74.4 (≈ 123 µM) | CO[C@H]1CN(c2cccc(-c3cccc(C)c3OCc3ccc4c(c3F)CCN(C3CCOCC3)CC4)n2)CC[C@H]1C(=O)O [Compound 277]
